Data published in patent US20240018151A1, “NOVEL INHIBITORS OF PIKFYVE AND METHODS USING SAME” (priority 2020, published 2024).
Like-named read-outs stand apart in the source and are kept apart here.

What was measured:
PIKFYVE [1] = biological target: T1, PIKFYVE (Homo sapiens (Human), UniProt Q9Y2I7); assay: KINOMEScan Kinase Assay, PIKFYVE binding; settings: for % Inhib. (50 nM): 50 nM compound; for inhibition at 0.05 µM: read-out: % Inhib. (50 nM)
PIKFYVE [2] = biological target: T1, PIKFYVE; assay: ADP-GLO Kinase Assay, PIKFYVE inhibitory activity; format: biochemical; settings: substrate PI3P 10,000 nM
Protocol: (§1) Briefly, 4× compound solution and 4×ATP solution are prepared with assay buffer (50 mM MOPS, 1 mM DTT, pH7.2). 4× Substrate solution and 4× kinase/Metal solution are prepared with MOPS based buffer containing individual kinase specific additives. Then, […] of 4× compound solution, 5 μL of 4× Substrate solution, 5 μL of 4×ATP solution, and 5 μL of 4× kinase/Metal solution are mixed and incubated in a well of polystyrene 384 well black microplate for 1 hour at room temperature. Next, 20 μL of ADP-Glo™ Reagent (Promega) is added to the well, and incubated for over 40 minutes. 40 μL of Kinase Detection Reagent (Promega) is added to the well, and incubated for over 40 minutes. The kinase reaction is evaluated by the endpoint luminescence of the well.
For measurement of PIKFYVE activity, the substrate is PI3P at 10,000 nM concentration, using AG-182 as a positive control. The metal used is magnesium at 5 mM concentration.

[3] = tested on: SARS-CoV-2 spike pseudovirus in BHK21/hACE2 cells; assay: microbe, parasite or virus in culture; format: cell-based; settings: Severe acute respiratory syndrome coronavirus 2, BHK-21
in vitro = settings: hamster
[4] = tested on: PIK3CA, PIP4K2A, PIP4K2B, PIP4K1A, PIP4K1B, PIP4K1C, PIP5KL1; assay: Comparative Kinase Assays (selectivity versus other lipid kinases); format: biochemical
Protocol: as §1
To determine whether the compounds are selective, the assay is repeated using appropriate substrates for different test enzymes:
The compounds of Examples 1, 3 and 6 are tested against these enzymes: […]

[5] = tested on: HuT-78 (T cell lymphoma) cells; assay: Anti-proliferative assay (CellTiter-Glo), HuT-78; format: cell-based; settings: Homo sapiens, HuT78, 144 h, six days incubation
Protocol: (§2) Selected compounds are evaluated for their anti-proliferative activity against human cutaneous T-cell lymphoma and multiple myeloma cell lines.
(§3) HuT-78 (T cell lymphoma) cells or JJN3 (multiple myeloma) cells are cultured in RPMI-1640 with 10% FBS and 1% penicillin/streptomycin. 45 μL suspensions of cells are transferred to the wells of 384-well plate for a density of 1,000 cells per well. The plates are incubated overnight at 37° C. under 5% CO2 atmosphere. Test compounds are dissolved in 100% DMSO at a 2 mM concentration, then diluted 20× in assay medium for to provide a 5% DMSO concentration and 100 μM compound concentration. 5 μL of this compound solution is added to the 45 μL cell suspension in the assay plate for a top plate concentration of 10 μM and 0.5% DMSO concentration. For positive controls, 10 μM APY0201 is added instead of the compound solution. After spinning at 1000 rpm for 1 minutes, the cell plate is placed in the incubator […] at 37° C. under 5% CO2 atmosphere. After incubation for six days, the cell plate is equilibrated to room temperature for 20 minutes. 25 μL of CellTiter-Glo (CTG) reagent (Promega Cat No. G7572) is added to each well, and the plate is shaken for 15 minutes at 300 rpm. Luminescence is read on an Envision plate reader.

[6] = tested on: JJN3 (multiple myeloma) cells; assay: Anti-proliferative assay (CellTiter-Glo), JJN3; format: cell-based; settings: Homo sapiens, JJN-3, 144 h, six days incubation
Protocol: as §2, §3

SARS-CoV-2 in Vero cells = assay: SARS-CoV-2 immunofluorescence assay (IFA); format: cell-based; settings: Severe acute respiratory syndrome coronavirus 2, SARS-CoV2 IFA Assay
[7] = Cytotoxicity (CC50) in SARS-CoV-2 IFA; format: cell-based; settings: African green monkey; SARS-CoV2 IFA Assay; Vero cells
Protocol: SARS-CoV-2 IFA: In 384-well plates, Vero cells re seeded at an appropriate density and cultured at 37° C. and 5% CO2. Serially diluted (10 concentrations, in duplicates) test/reference compounds are added. Then the cells are infected with virus. The resulting cultures are incubated for an additional 1 day. The cells are then fixed and analyzed by immunofluorescence. EC50 and CC50 values are calculated with GraphPad Prism software.

[8] = tested on: influenza A strain California/07/09 (H1N1) pdm09 in MDCK cells; assay: Influenza A IFA assay (CPE inhibition, neutral red); format: cell-based; settings: Influenza A virus
[9] = Cytotoxicity (CC50) in Influenza A assay; format: cell-based; settings: dog; Influenza A IFA Assay; MDCK cells
Protocol: Influenza A IFA: Test compounds are solubilized in DMSO to prepare 20 mg/mL stock solutions. Compounds are then serially diluted using eight half-log dilutions in test media so that the starting (high) test concentration is 100 μg/mL. Each dilution is added to 5 wells of a 96-well plate with 80-100% confluent MDCK cells. Three wells of each dilution are infected with virus (strain influenza A strain California/07/09 (H1N1) pdm09), and two wells remain uninfected as toxicity controls. As virus controls, six wells are infected but untreated, and as cell controls, six wells are uninfected and untreated. Each virus is prepared to achieve an MOI (multiplicity of infection) of 0.001. A positive control compound is tested in parallel. Plates are incubated at 37° C. under 5% CO2 atmosphere. On day 3 post-infection (once untreated virus control cells reached maximum cytopathic effect, CPE), plates are stained with neutral red dye for 2 hours. Supernatant dye is removed and the wells are rinsed with PBS. The incorporated dye is extracted using 50:50 Sorensen citrate buffer/ethanol for at least 30 minutes, and the optical density is read at […] on a spectrophotometer. […] The selectivity index (SI) is calculated as CC50 divided by EC50. […]

T1 sequence (Q9Y2I7 whole entry): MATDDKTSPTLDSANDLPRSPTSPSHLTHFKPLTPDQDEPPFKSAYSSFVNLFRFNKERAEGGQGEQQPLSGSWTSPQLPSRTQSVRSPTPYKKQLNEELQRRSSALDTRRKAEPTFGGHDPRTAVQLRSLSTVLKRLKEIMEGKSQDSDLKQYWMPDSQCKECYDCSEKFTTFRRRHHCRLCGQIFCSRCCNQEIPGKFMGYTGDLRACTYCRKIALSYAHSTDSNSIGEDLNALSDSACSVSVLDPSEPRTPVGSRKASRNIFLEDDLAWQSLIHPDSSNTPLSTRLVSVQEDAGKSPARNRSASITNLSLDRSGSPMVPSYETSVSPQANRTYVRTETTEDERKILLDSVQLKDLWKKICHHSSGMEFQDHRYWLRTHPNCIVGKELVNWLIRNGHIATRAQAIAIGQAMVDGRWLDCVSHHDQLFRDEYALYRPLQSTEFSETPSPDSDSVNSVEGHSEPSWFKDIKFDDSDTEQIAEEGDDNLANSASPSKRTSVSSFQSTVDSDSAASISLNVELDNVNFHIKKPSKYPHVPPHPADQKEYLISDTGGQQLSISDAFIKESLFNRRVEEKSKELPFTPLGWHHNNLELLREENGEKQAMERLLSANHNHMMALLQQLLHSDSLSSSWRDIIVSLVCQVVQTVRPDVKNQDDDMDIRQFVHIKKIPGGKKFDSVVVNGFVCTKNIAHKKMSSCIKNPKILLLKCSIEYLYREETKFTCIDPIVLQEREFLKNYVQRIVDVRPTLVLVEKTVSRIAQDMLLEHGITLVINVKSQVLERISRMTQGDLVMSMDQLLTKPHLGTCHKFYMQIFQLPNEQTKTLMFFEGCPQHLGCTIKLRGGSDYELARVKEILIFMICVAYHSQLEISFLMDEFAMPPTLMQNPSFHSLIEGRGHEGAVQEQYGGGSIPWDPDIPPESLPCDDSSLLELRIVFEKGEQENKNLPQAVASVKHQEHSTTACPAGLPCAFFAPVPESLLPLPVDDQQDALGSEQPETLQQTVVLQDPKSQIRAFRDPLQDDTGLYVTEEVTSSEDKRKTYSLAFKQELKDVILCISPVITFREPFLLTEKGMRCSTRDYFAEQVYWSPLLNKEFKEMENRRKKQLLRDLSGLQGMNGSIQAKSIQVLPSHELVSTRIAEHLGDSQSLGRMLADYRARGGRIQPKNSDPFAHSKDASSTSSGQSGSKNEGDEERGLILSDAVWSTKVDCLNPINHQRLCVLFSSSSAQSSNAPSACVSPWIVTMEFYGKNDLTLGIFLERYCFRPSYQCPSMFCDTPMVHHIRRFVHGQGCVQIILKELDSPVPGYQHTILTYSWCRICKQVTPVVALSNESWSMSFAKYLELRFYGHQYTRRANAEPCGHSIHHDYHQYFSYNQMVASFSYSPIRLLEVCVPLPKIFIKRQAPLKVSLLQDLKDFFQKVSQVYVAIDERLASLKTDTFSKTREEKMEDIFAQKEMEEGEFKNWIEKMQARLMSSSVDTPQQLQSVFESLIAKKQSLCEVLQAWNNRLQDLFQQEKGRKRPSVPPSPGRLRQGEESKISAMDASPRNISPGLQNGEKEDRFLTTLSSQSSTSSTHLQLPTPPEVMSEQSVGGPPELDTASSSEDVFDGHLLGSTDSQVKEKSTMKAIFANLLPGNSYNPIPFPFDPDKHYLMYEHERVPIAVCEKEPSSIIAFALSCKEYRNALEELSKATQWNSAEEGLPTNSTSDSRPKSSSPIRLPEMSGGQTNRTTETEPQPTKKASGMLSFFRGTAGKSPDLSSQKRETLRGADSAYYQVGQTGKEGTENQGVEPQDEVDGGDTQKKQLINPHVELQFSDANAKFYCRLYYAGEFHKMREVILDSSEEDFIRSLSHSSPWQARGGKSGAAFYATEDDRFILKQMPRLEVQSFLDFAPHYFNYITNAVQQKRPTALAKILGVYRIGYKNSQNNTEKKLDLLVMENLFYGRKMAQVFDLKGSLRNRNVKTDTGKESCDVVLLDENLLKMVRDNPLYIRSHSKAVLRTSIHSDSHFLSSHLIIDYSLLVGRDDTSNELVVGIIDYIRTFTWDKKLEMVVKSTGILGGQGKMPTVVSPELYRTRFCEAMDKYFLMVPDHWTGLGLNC

Compound: COc1cccc(-c2ccn(-c3cc(N4CCO[C@@H](C)C4)n4nc(-c5ccncc5)cc4n3)n2)c1 [Ex. 12]
- % Inhib. (50 nM) (PIKFYVE [1]; KINOMEScan Kinase Assay): +++ (>80%-100%)

Compound: Fc1cccc(-c2ccn(-c3cc(N4CCOCC4)n4nc(-c5ccncc5)cc4n3)n2)c1 [Ex. 2]
- IC50 (PIKFYVE [2]): < 50 nM
- inhibition at 0.05 µM (PIKFYVE [1]): 50 to 80%

Compound: COc1cccc(-c2ccn(-c3cc(N4CCO[C@H](C)C4)n4nc(-c5ccncc5)cc4n3)n2)c1 [Ex. 11]
- Kd (PIKFYVE [1]; KINOMEScan Kinase Assay): 5 to 10 nM

Compound: C=Cc1cc2nc(-n3ccc(-c4cccc(C)c4)n3)cc(N3CCOCC3)n2n1 [Ex. 27, 4-(5-(3-(m-tolyl)-1H-pyrazol-1-yl)-2-vinylpyrazolo[1,5-a]pyrimidin-7-yl)morpholine]
- inhibition at 0.05 µM (PIKFYVE [1]): 80 to 100%

Compound: FC(F)(F)c1ccc(-c2ccn(-c3cc(N4CCOCC4)n4nc(-c5ccncc5)cc4n3)n2)cc1 [Ex. 10]
- IC50 (PIKFYVE [2]): > 1000 nM
- inhibition at 0.05 µM (PIKFYVE [1]): < 50%

Compound: Fc1ccccc1-c1ccn(-c2cc(N3CCOCC3)n3nc(-c4ccncc4)cc3n2)n1 [Ex. 8]
- IC50 (PIKFYVE [2]): < 50 nM
- inhibition at 0.05 µM (PIKFYVE [1]): 50 to 80%

Compound: Cc1cccc(/C=N/Nc2cc(N3CCOCC3)nc(OCCc3ccccn3)n2)c1 [Apilimod, reference compound]
- EC50 [3]: < 10 nM
- CC50 (in vitro): 8000 nM

Compound: CCOc1cccc(-c2ccn(-c3cc(N4CCOCC4)n4nc(-c5ccncc5)cc4n3)n2)c1 [Ex. 23, 4-(5-(3-(3-ethoxyphenyl)-1H-pyrazol-1-yl)-2-(pyridin-4-yl)pyrazolo[1,5-a]pyrimidin-7-yl)morpholine]
- inhibition at 0.05 µM (PIKFYVE [1]): < 50%

Compound: Cc1ccccc1-c1ccn(-c2cc(N3CCOCC3)n3nc(-c4ccncc4)cc3n2)n1 [Ex. 7]
- IC50 (PIKFYVE [2]): 50 to 1000 nM
- inhibition at 0.05 µM (PIKFYVE [1]): < 50%

Compound: Cc1cccc(-c2ccn(-c3cc(N4CCOCC4)n4nc(Br)cc4n3)n2)c1 [Ex. 24, 4-(2-bromo-5-(3-(m-tolyl)-1H-pyrazol-1-yl)pyrazolo[1,5-a]pyrimidin-7-yl)morpholine]
- Kd (PIKFYVE [1]): 1 to 5 nM

Compound: Cc1cccc(-c2ccn(-c3cc(N4CCOCC4)n4nc(C5=CCNCC5)cc4n3)n2)c1 [Ex. 28, 4-(2-(1,2,3,6-tetrahydropyridin-4-yl)-5-(3-(m-tolyl)-1H-pyrazol-1-yl)pyrazolo[1,5-a]pyrimidin-7-yl)morpholine]
- Kd (PIKFYVE [1]): 1 to 5 nM

Compound: COc1cccc(-c2ccn(-c3cc(N4CCOC[C@@H]4C)n4nc(-c5ccncc5)cc4n3)n2)c1 [Ex. 13]
- % Inhib. (50 nM) (PIKFYVE [1]; KINOMEScan Kinase Assay): +++ (>80%-100%)

Compound: CCN(CC)CCCC(C)Nc1ccnc2cc(Cl)ccc12 (centres unmarked) [Chloroquine, chloroquine, reference compound]
- EC50 [3]: 6000 nM
- CC50 (in vitro): 35000 nM

Compound: COc1cccc(-c2ccn(-c3cc(N4CCOC[C@H]4C)n4nc(-c5ccncc5)cc4n3)n2)c1 [Ex. 14]
- Kd (PIKFYVE [1]; KINOMEScan Kinase Assay): 5 to 10 nM

Compound: Cc1cccc(-c2ccn(-c3cc(N4CCOCC4)n4nc(-c5ccnnc5)cc4n3)n2)c1 [Ex. 25, 4-(2-(pyridazin-4-yl)-5-(3-(m-tolyl)-1H-pyrazol-1-yl)pyrazolo[1,5-a]pyrimidin-7-yl)morpholine]
- Kd (PIKFYVE [1]): < 1 nM

Compound: 4-(2-(pyridin-4-yl)-5-(3-(3-(trifluoromethyl)phenyl)-1H-pyrazol-1-yl)pyrazolo[1,5-a]pyrimidin-7-yl)morpholine [Ex. 21]
- % Inhib. (50 nM) (PIKFYVE [1]; KINOMEScan Kinase Assay): ++ (>50%-80%)

Compound: COc1cccc(-c2ccn(-c3cc(N4CCOCC4)n4nc(-c5ccncc5)cc4n3)n2)c1 [Ex. 6]
- IC50 (PIKFYVE [2]): < 50 nM
- Fold Selectivity for PIKFYVE [4]: >200-fold
- EC50 [3]: < 10 nM
- IC50 [5]: 100 to 1000 nM
- IC50 [6]: < 100 nM
- CC50 (in vitro): 5000 to 10000 nM
- Kd (PIKFYVE [1]): < 1 nM

Compound: Cc1cccc(-c2ccn(-c3cc(N4CCOCC4)n4nc(-c5ccncc5)cc4n3)n2)c1 [Ex. 1]
- IC50 (PIKFYVE [2]): < 50 nM
- Fold Selectivity for PIKFYVE [4]: >100-fold
- EC50 [3]: < 10 nM
- EC50 (SARS-CoV-2 in Vero cells): 100 to 1000 nM
- CC50 at 1 day [7]: > 20000 nM
- EC50 [8]: 1000 to 5000 nM
- CC50 [9]: > 20000 nM
- IC50 [5]: 100 to 1000 nM
- IC50 [6]: < 100 nM
- CC50 (in vitro): 5000 to 10000 nM
- Kd (PIKFYVE [1]): < 1 nM

Compound: Fc1ccc(-c2ccn(-c3cc(N4CCOCC4)n4nc(-c5ccncc5)cc4n3)n2)cc1 [Ex. 9]
- IC50 (PIKFYVE [2]): < 50 nM
- inhibition at 0.05 µM (PIKFYVE [1]): 50 to 80%

Compound: [O-][n+]1ccc(-c2cc3nc(-n4ccc(-c5cccc(Br)c5)n4)cc(N4CCOCC4)n3n2)cc1 [Ex. 18, 4-(5-(3-(3-bromophenyl)-1H-pyrazol-1-yl)-7-morpholinopyrazolo[1,5-a]pyrimidin-2-yl)pyridine 1-oxide]
- Kd (PIKFYVE [1]): < 1 nM

Compound: CC(C)(C)c1ccn(-c2cc(N3CCOCC3)n3nc(-c4ccncc4)cc3n2)n1 [Ex. 5]
- IC50 (PIKFYVE [2]): > 1000 nM
- inhibition at 0.05 µM (PIKFYVE [1]): < 50%

Compound: N#Cc1cccc(-c2ccn(-c3cc(N4CCOCC4)n4nc(-c5ccncc5)cc4n3)n2)c1 [Ex. 4]
- IC50 (PIKFYVE [2]): < 50 nM
- inhibition at 0.05 µM (PIKFYVE [1]): 50 to 80%

Compound: Cc1cccc(-c2ccn(-c3cc(N4CCOCC4)n4nc(C5=CC[N+](C)(C)CC5)cc4n3)n2)c1 [Ex. 29, 1,1-dimethyl-4-(7-morpholino-5-(3-(m-tolyl)-1H-pyrazol-1-yl)pyrazolo[1,5-a]pyrimidin-2-yl)-1,2,3,6-tetrahydropyridin-1-ium]
- % Inhib. (50 nM) (PIKFYVE [1]; KINOMEScan Kinase Assay): +++ (>80%-100%)

Compound: COc1cccc(-c2ccn(-c3cc(N4CCOCC4)n4nc(-c5ccncc5)cc4n3)n2)c1 [Ex. 15]
- Kd (PIKFYVE [1]; KINOMEScan Kinase Assay): 1 to 5 nM

Compound: Cc1cccc(-c2ccn(-c3cc(N4CCOCC4)n4nc(C5=CCN(C(=O)OC(C)(C)C)CC5)cc4n3)n2)c1 [Ex. 26, tert-butyl4-(7-morpholino-5-(3-(m-tolyl)-1H-pyrazol-1-yl)pyrazolo[1,5-a]pyrimidin-2-yl)-3,6-dihydropyridine-1(2H)-carboxylate]
- inhibition at 0.05 µM (PIKFYVE [1]): 80 to 100%

Compound: Cc1cccc(-c2ccn(-c3cc(N4CCOCC4)n4nc(-c5ccncc5)cc4n3)n2)c1 [Ex. 17]
- Kd (PIKFYVE [1]; KINOMEScan Kinase Assay): < 1 nM

Compound: FC(F)(F)Oc1cccc(-c2ccn(-c3cc(N4CCOCC4)n4nc(-c5ccncc5)cc4n3)n2)c1 [Ex. 22, 4-(2-(pyridin-4-yl)-5-(3-(3-(trifluoromethoxy)phenyl)-1H-pyrazol-1-yl)pyrazolo[1,5-a]pyrimidin-7-yl)morpholine]
- inhibition at 0.05 µM (PIKFYVE [1]): < 50%

Compound: Brc1cccc(-c2ccn(-c3cc(N4CCOCC4)n4nc(-c5ccncc5)cc4n3)n2)c1 [Ex. 3]
- EC50 [3]: < 10 nM
- EC50 (SARS-CoV-2 in Vero cells): 1000 to 5000 nM
- CC50 at 1 day [7]: > 20000 nM
- EC50 [8]: 5000 to 10000 nM
- CC50 [9]: > 20000 nM
- CC50 (in vitro): > 10000 nM
- inhibition at 0.05 µM (PIKFYVE [1]): 80 to 100%
